Assay results as given in ChEMBL document CHEMBL5230166, “Novel quinoline-piperazine hybrids: the design, synthesis and evaluation of antibacterial and antituberculosis properties” (RSC Med Chem, 2023).
Converted amounts (≈) assume the structure as drawn.

The compounds below were run on Mycobacterium tuberculosis (assay: Antibacterial activity multi-drug resistant Mycobacterium tuberculosis H37Rv ATCC 35822 assessed as inhibition of bacterial growth incubated for 2 days by CLSI protocol based broth microdilution method). Conditions: H37Rv ATCC 35822, 48 h, time 2 day.
Type: functional

| Structure (SMILES) | MIC |
| --- | --- |
| COc1cc(CN2CCN(C(=O)c3cccc(Cl)c3)CC2)nc2ccc(F)cc12 | > 64 µg/mL |
| COc1cc(CN2CCN(C(=O)c3cccc(F)c3)CC2)nc2ccc(F)cc12 | > 64 µg/mL |
| COc1cc(CN2CCN(S(=O)(=O)c3ccc(Cl)cc3Cl)CC2)nc2ccc(F)cc12 | > 64 µg/mL |
| COc1ccc(C(=O)N2CCN(Cc3cc(OC)c4cc(F)ccc4n3)CC2)cc1 | > 64 µg/mL |
| COc1cc(CN2CCN(S(=O)(=O)c3ccc(C)cc3)CC2)nc2ccc(F)cc12 | > 64 µg/mL |
| COc1ccc2nc(CN3CCN(S(=O)(=O)c4ccc(NC(C)=O)cc4)CC3)cc(OC)c2c1 | > 64 µg/mL |
| COc1cc(CN2CCN(C(=O)c3ccccc3F)CC2)nc2ccc(F)cc12 | > 64 µg/mL |
| COc1ccc2nc(CN3CCN(S(=O)(=O)c4ccccc4C(F)(F)F)CC3)cc(OC)c2c1 | > 64 µg/mL |
| COc1ccc2nc(CN3CCN(S(=O)(=O)c4cccs4)CC3)cc(OC)c2c1 | > 64 µg/mL |
| COc1ccc2nc(CN3CCN(C(=O)c4ccccc4F)CC3)cc(OC)c2c1 | > 64 µg/mL |
| COc1ccc2nc(CN3CCN(S(=O)(=O)c4c(C)cc(C)cc4C)CC3)cc(OC)c2c1 | > 64 µg/mL |
| CNS(=O)(=O)N1CCN(Cc2cc(OC)c3cc(OC)ccc3n2)CC1 | > 64 µg/mL |
| COc1cccc(C(=O)N2CCN(Cc3cc(OC)c4cc(OC)ccc4n3)CC2)c1 | > 64 µg/mL |
| COc1ccc2nc(CN3CCN(C(=O)c4ccccc4OC)CC3)cc(OC)c2c1 | > 64 µg/mL |
| COc1cc(CN2CCN(S(=O)(=O)c3ccccc3F)CC2)nc2ccc(F)cc12 | 4 µg/mL (≈ 9.23 µM) |
| COc1ccc2nc(CN3CCN(C(=O)c4ccc(Cl)c(Cl)c4)CC3)cc(OC)c2c1 | > 64 µg/mL |
| COc1ccc2nc(CN3CCN(S(=O)(=O)c4cccc5ccccc45)CC3)cc(OC)c2c1 | > 64 µg/mL |
| COc1ccc2nc(CN3CCN(C(=O)C4CCC4)CC3)cc(OC)c2c1 | > 64 µg/mL |
| COc1ccc(S(=O)(=O)N2CCN(Cc3cc(OC)c4cc(F)ccc4n3)CC2)cc1 | > 64 µg/mL |
| COc1cc(CN2CCN(S(=O)(=O)c3ccc(NC(C)=O)cc3)CC2)nc2ccc(F)cc12 | > 64 µg/mL |
| COc1ccc2nc(CN3CCN(C(=O)c4c(Cl)cccc4Cl)CC3)cc(OC)c2c1 | > 64 µg/mL |
| COc1cc(CN2CCN(C(=O)c3ccccc3C)CC2)nc2ccc(F)cc12 | > 64 µg/mL |
| COc1ccc2nc(CN3CCN(S(=O)(=O)c4ccccc4F)CC3)cc(OC)c2c1 | 0.5 µg/mL (≈ 1.12 µM) |
| COc1ccc2nc(CN3CCN(S(=O)(=O)c4c(F)c(F)c(F)c(F)c4F)CC3)cc(OC)c2c1 | > 64 µg/mL |
| COc1ccc2nc(CN3CCN(S(=O)(=O)c4ccc(F)cc4)CC3)cc(OC)c2c1 | > 64 µg/mL |
| COc1ccc2nc(CN3CCN(C(=O)c4ccc(Cl)cc4Cl)CC3)cc(OC)c2c1 | > 64 µg/mL |
| C[C@H]1COc2c(N3CCN(C)CC3)c(F)cc3c(=O)c(C(=O)O)cn1c23.C[C@H]1COc2c(N3CCN(C)CC3)c(F)cc3c(=O)c(C(=O)O)cn1c23.O [LEVOFLOXACIN] | 4 µg/mL |
| CO[C@H]1/C=C/O[C@@]2(C)Oc3c(C)c(O)c4c(O)c(c(/C=N/N5CCN(C)CC5)c(O)c4c3C2=O)NC(=O)/C(C)=C\C=C\[C@H](C)[C@H](O)[C@@H](C)[C@@H](O)[C@@H](C)[C@H](OC(C)=O)[C@@H]1C [RIFAMPIN] | > 64 µg/mL |
